Consider five compounds from paper PMC5282889 (Bioorganic & medicinal chemistry letters, 2016).

One experiment has as its target AChE (Homo sapiens, UniProt P22303). The experiment is described as follows: biochemical. The note with it: read-out: AChE inhibition (%).
The next experiment deals with BuChE (Homo sapiens, UniProt P06276). The experiment is described as follows: Ellman assay, BuChE inhibition. The following applies: read-out: BuChE inhibition (%), tested at 10 μM concentration. In kind it is biochemical. For orientation: In Ellman's method for cholinesterases, released thiocholine reacts with DTNB.
Sequence of BuChE (P06276 29-602): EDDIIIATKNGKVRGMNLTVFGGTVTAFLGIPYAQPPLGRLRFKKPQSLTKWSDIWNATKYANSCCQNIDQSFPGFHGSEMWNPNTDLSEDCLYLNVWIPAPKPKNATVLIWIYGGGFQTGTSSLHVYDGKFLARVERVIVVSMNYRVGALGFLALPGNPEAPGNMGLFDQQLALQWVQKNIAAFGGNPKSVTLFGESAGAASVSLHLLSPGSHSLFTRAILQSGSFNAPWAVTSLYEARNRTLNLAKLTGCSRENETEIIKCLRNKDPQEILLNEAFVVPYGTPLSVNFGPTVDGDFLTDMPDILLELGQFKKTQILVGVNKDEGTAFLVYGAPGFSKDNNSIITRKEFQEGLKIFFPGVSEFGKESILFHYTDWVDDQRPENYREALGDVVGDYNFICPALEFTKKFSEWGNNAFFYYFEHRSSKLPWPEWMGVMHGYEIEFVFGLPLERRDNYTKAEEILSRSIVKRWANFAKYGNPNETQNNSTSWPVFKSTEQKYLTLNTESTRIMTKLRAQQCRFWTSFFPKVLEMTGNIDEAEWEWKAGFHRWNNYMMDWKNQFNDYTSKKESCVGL
A further experiment addresses Aβ (Homo sapiens, UniProt P05067). The experiment in a line: Aβ fibrillogenesis, Thioflavin-T. The note with it: for Aβ fibril inhibition (%): Aβ:inhibitor = 1:1 ratio at 100 μM Aβ concentration. In kind it is biochemical.
A further experiment has as its target Aβ-peptide (Homo sapiens, UniProt P05067). The experiment is described as follows: High resolution mass spectrometry of inhibitor-Aβ complex formation. The note with it: Aβ-peptide-14 mixture (30 μM to 150 μM); 1:1 and 1:2 complexes observed. In kind it is binding.

Where only a bound is given, the exact number is not on record here.

Sequence of AChE (P22303 32-614): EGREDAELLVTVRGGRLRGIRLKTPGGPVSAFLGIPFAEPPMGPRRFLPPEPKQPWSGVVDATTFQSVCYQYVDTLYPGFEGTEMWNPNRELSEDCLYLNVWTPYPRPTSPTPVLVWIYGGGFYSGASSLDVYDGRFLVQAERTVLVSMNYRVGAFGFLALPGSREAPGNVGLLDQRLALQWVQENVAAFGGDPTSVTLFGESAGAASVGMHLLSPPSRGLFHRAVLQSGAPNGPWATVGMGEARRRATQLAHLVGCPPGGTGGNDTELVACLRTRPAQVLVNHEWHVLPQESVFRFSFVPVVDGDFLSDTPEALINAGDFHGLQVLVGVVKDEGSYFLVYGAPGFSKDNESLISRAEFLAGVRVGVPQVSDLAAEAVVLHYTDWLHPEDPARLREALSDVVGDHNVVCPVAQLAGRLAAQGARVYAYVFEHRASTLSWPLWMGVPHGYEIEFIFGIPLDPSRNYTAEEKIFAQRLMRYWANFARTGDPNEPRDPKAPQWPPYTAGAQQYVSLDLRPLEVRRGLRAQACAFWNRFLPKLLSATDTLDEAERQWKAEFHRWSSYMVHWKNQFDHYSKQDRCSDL
Sequence of Aβ (P05067 672-711 limits assumed): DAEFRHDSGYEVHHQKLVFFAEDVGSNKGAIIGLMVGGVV
Sequence of Aβ-peptide (P05067 672-711 limits assumed): as above

`c1ccc(-c2nccc3c2[nH]c2ccccc23)cc1` [Compound 1]: the inhibition at 2 µM at AChE was -12%.

As to `COc1ccc2[nH]c3c(-c4ccc(C)cc4)nccc3c2c1` [Compound 4], the inhibition at 2 µM on AChE is -15%. Turning to `Fc1ccc(-c2nccc3c2[nH]c2ccccc23)cc1` [Compound 6], on BuChE, the inhibition at 10 µM was above 80%. In addition, on Aβ, the “Aβ fibril inhibition (%)” value was 39%. In the case of `c1ccc2c(c1)[nH]c1c(C3CCCCC3)nccc12` [Compound 13], the “Aβ fibril inhibition (%)” value at Aβ was −12%. Consider `c1ccc2c(-c3nccc4c3[nH]c3ccccc34)cccc2c1` [Compound 14], for which the inhibition at 10 µM at BuChE is above 80%. Further, the “Complex formation with Aβ peptide (HR-MS)” value on Aβ-peptide was “forms a complex with the peptide”. For the same compound, the inhibition at 2 µM on AChE is -11%. On Aβ, the EC50 was around 110 µM.

As a reminder, the EC50 is the concentration needed to bring the measured effect to its halfway point.
